According to patent US20240165116A1, “ROCK2 INHIBITOR FOR THE TREATMENT OF VIRAL INFECTION” (Graviton Bioscience B.V., priority 2021, published 2024):
“Also recorded” adds a separate entry of the source.

Assays:
[1] = tested on: SARS-CoV-2 (2019-nCoV/USA-WA1/2020 strain); test: Viral load in lung lysates of SARS-CoV-2 challenged human ACE2 transgenic mice; type: in vivo; conditions: 300 mg/kg daily via oral gavage in 0.5% CMC-Na; initial viral loads 100, 1000, 10,000 pfu; compared with vehicle and Remdesivir (25 mg/kg subcutaneously)
Description: FIGS. 6A, 6B, and 6C. Efficacy: Viral Load in Lung Lysates. […] Shown are viral copies/mg of lungs for initial viral loads of 100 pfu SARS-CoV2 (FIG. 6A), 1000 pfu SARS-CoV2 (FIG. 6B), and 10,000 pfu SARS-CoV2 (FIG. 6C). Groups from left to right: Vehicle, Formula XII (300 mg/kg), Remdesivir (RDV). Inserts: Formula XII (300 mg/kg) (left), Remdesivir (RDV) (right).
Human ACE2 transgenic mice from Jackson Laboratories (n=5 per group) were challenged at t=0 with SARS-CoV-2 at an initial viral load of 100 PFU, 1,000, or 10,000 pfu of 2019-nCoV/USA-WA1/2020 strain. This strain was isolated from an oropharyngeal swab from a patient with a respiratory illness who developed the clinical disease (COVID-19) in January 2020 in Washington, US (BEI Resources, NR-52281). […] The infected mice were dosed daily via oral gavage with (1) 0.5% sodium carboxymethyl cellulose (CMC-Na) (negative control), (2) 300 mg/kg Formula XII in 0.5% CMC-Na (test group), or (3) Remdesivir (RDV). RDV, an anti-viral reagent that acts as a nucleoside analog and inhibits the RNA-dependent RNA polymerase (RdRp) of coronaviruses including SARS-CoV-2, was used a positive control. […] The animals were monitored daily. […] The viral load in the lung was determined by qPCR detecting viral RNA in lung lysates.

[2] = tested on: SARS-CoV-2 (2019-nCoV/USA-WA1/2020 strain); test: In vitro SARS-CoV-2 prevention model: viral RNA in supernatant by qPCR; type: cell-based; conditions: Severe acute respiratory syndrome coronavirus 2; Calu-3 cells treated 2 h at 37° C., challenged with 10^2 PFU SARS-CoV-2 for 6 h, qPCR of supernatant at 48 h; calculated from best-fit values; read-out: EC50 (SARS-CoV-2 in supernatant, classical dose-response curve)
Description: FIG. 2. Efficacy: SARS-CoV-2 CPN in Supernatant. Immortalized human airway epithelial cells (Calu-3) were treated with the listed concentrations of the Formula XII compound for 2 h at 37° C. followed by challenge with SARS-CoV-2 for 6 h. After washing, the cells were maintained for 48 hours and viral infection was analyzed by qPCR of the supernatant. Each data point represents the mean of three replicates.
FIG. 3. Efficacy: Classical Dose-Response Curve. This figure provides the dose-response curve for the experiment described in Example 1 and FIG. 2.
A 50 mM stock solution of (6-(4-((4-(1H-pyrazol-4-yl)phenyl)amino)pyrimidin-2-yl)-1-methyl-1H-indol-2-yl)(3,3-difluoroazetidin-1-yl)methanone (Formula XII) in DMSO was diluted using PBS to Formula XII concentrations of 100 μM, 10 μM, 1 μM, 0.3 μM, 0.1 μM, and 0.03 μM. About 30,000 immortalized human airway epithelial cells (Calu-3) were grown to about 100,000 cells per well in a 96-well format. […]
Viral infection was analyzed by qPCR (qRT-PCR). […] Viral or host RNA levels in the supernatant were determined using the TaqPath™ 1-Step RT-qPCR Master Mix (Thermo Fisher) on CFX Connect Real-Time System (Bio-Rad) instrument using the following primers: Fwd: 5′-[…]-3; Rev: 5′-[…]-3′).
Datasets were analyzed and plotted in GraphPad Prism (version 9.0.2). […]

Compound: Cn1c(C(=O)N2CC(F)(F)C2)cc2ccc(-c3nccc(Nc4ccc(-c5cn[nH]c5)cc4)n3)cc21 [Formula XII, (6-(4-((4-(1H-pyrazol-4-yl)phenyl)amino)pyrimidin-2-yl)-1-methyl-1H-indol-2-yl)(3,3-difluoroazetidin-1-yl)methanone]
- Viral load in the lung (viral copies/mg of lungs, qPCR of lung lysates) [1]: significantly reduced viral load as compared to both the negative as well as the positive control; also recorded: reduces the spread of SARS-CoV2 in the lungs of mice in vivo
- EC50 [2]: 124 nM
